From US9050346B2, “Bromodomain inhibitors” (AbbVie Inc., priority 2013, dated 2015)

What was measured:
[1] = biological target: T1, BRD4 (BDI_K57-E168) (Homo sapiens, UniProt O60885); assay: TR-FRET bromodomain binding assay, BRD4 first bromodomain; settings: His-tagged BD1, 100 nM Alexa647 probe; Ki calculated from IC50; dilution protocol A-G
T1 construct: BD1: amino acids K57-E168; made in house
Procedure: (§1) A time-resolved fluorescence resonance energy transfer (TR-FRET) assay was used to determine the affinities of compounds of the Examples listed in Table 1 for each bromodomain of BRD4. His-tagged first (BD1: amino acids K57-E168) and second (BD2: amino acids E352-E168) bromodomains of BRD4 were expressed and purified. An Alexa647-labeled BET-inhibitor was used as the fluorescent probe in the assay.
(§2) Compound dilution series were prepared in DMSO via an approximately 3-fold serial dilution from one of the following: • Assay method A: 2.5 mM-800 nM • Assay method B: 2.5 mM-797 nM • Assay method C: 1250 μM-21 nM • Assay method D: 500 μM-8.5 nM • Assay method E: 0.47 mM to 7.8 nM • Assay method F: 250 μM-4.2 nM • Assay method G: 0.047 mM to 0.78 nM or 5-fold serial dilution from Assay Method A or Assay Method B.
(§3) For Assay methods A, C, D, and F: Compounds were then diluted 6:100 in assay buffer (20 mM Sodium Phosphate, pH 6.0, 50 mM NaCl, 1 mM Ethylenediaminetetraacetic acid, 0.01% Triton X-100, 1 mM DL-Dithiothreitol) to yield 3× working solutions. Six microliters (μL) of the working solution was then transferred to white, low-volume assay plates (Costar #3673). A 1.5× assay mixture containing His-tagged bromodomain, Europium-conjugated anti-His antibody (Invitrogen PV5596) and the Alexa-647-conjugated probe molecule was also prepared. Twelve μL of this solution were added to the assay plate to reach a final volume of 18 μL.
(§4) For Assay methods B, E, and G: Compound dilutions were added directly into white, low-volume assay plates (Perkin Elmer Proxiplate 384 Plus#6008280) using a Labcyte Echo in conjunction with Labcyte Access and Thermo Multidrop CombinL robotics. Compounds were then suspended in eight microliters (μL) of assay buffer (20 mM Sodium Phosphate, pH 6.0, 50 mM NaCl, 1 mM Ethylenediaminetetraacetic acid disodium salt dihydrate, 0.01% Triton X-100, 1 mM DL-Dithiothreitol) containing His-tagged bromodomain, Europium-conjugated anti-His antibody (Invitrogen PV5596) and Alexa-647-conjugated probe.
(§5) The final concentration of 1× assay mixture for assay methods A, B, C, D, E, F, and G contains 2% DMSO, 8 nM His-tagged bromodomain, 1 nM Europium-conjugated anti-His-tag antibody and 100 nM or 30 nM probe (for BDI or BDII, respectively) and compound concentration in the range of: 50 μM-16 nM for method A, 49.02 μM-15.63 nM for method B, 25 μM-423 pM for method C, 10 μM-169 pM for method D, 9.19 μM-150 pM for method E, 5 μM-85 pM for method F, and 0.92 μM-15 pM for method G.
(§6) After a one-hour equilibration at room temperature, TR-FRET ratios were determined using an Envision multilabel plate reader (Ex 340, Em 495/520).
(§7) TR-FRET data were normalized to the means of 24 no-compound controls (“high”) and 8 controls containing 1 μM un-labeled probe (“low”). Percent inhibition was plotted as a function of compound concentration and the data were fit with the 4 parameter logistic equation to obtain IC50s Inhibition constants (Ki) were calculated from the IC50s, probe Kd and probe concentration. Typical Z′ values were between 0.65 and 0.75. The minimum significant ratio was determined to evaluate assay reproducibility (Eastwood et al., (2006) J Biomol Screen, 11: 253-261). The MSR was determined to be 2.03 for BDI and 1.93 for BDII, and a moving MSR (last six run MSR overtime) for both BDI and BDII was typically <3.

[2] = biological target: T2, BRD4 (BDII_E352-M457) (Homo sapiens, UniProt O60885); assay: TR-FRET bromodomain binding assay, BRD4 second bromodomain
T2 construct: made in house
Procedure: as §1, §2, §3, §4, §5, §6, §7

[3] = tested on: breast cancer cell line MX-1; assay: MX-1 cell line proliferation assay (3-day, Cell Titer Glo); assay type: cell-based; settings: Homo sapiens, MX1, MX-1 cells, 72 h, top concentration 3 μM, read-out: Cellular proliferation: EC50
Procedure: The impact of compounds of the Examples on cancer cell proliferation was determined using the breast cancer cell line MX-1 (ATCC) in a 3-day proliferation assay and the data are reported in Table 1. MX-1 cells were maintained in RPMI 1640 medium (Sigma) supplemented with 10% FBS at 37 C.° and an atmosphere of 5% CO2. For compound testing, MX-1 cells were plated in 96-well black bottom plates at a density of 5000 cells/well in 90 μL of culture media and incubated at 37° overnight to allow cell adhesion and spreading. Compound dilution series were prepared in DMSO via a 3-fold serial dilution from 3 mM to 0.1 μM. The DMSO dilution series were then diluted 1:100 in phosphate buffered saline, and 10 μL of the resulted solution were added to the appropriate wells of the MX-1 cell plate. The final compound concentrations in the wells were 3, 1, 0.3, 0.1, 0.03, 0.01, 0.003, 0.001, 0.0003 and 0.0001 μM.
Luminescence readings from the Cell Titer Glo assay were normalized to the DMSO treated cells and analyzed using the GraphPad Prism software with sigmoidal curve fitting to obtain EC50s. The minimum significant ratio (MSR) was determined to evaluate assay reproducibility (Eastwood et al., (2006) J Biomol Screen, 11: 253-261).

Ki [1] | Ki [2] | EC50 [3] | SMILES
1.66 nM | 6.08 nM | 270 nM | Cc1[nH]c(-c2cc(NS(C)(=O)=O)ccc2Oc2ccc(F)cc2F)c2cc(C(N)=O)[nH]c(=O)c12 [Example 19, 1-(2-(2,4-difluorophenoxy)-5-(methylsulfonamido)phenyl)-3-methyl-4-oxo-4,5-dihydro-2H-pyrrolo[3,4-c]pyridine-6-carboxamide]
380 nM | 1620 nM | 761 nM | Cc1[nH]c(-c2ccccc2Oc2ccccc2)c2nc(-c3ccco3)[nH]c(=O)c12 [Example 88, 2-(furan-2-yl)-5-methyl-7-(2-phenoxyphenyl)-3,6-dihydro-4H-pyrrolo[3,4-d]pyrimidin-4-one]
8.25 nM | 72.1 nM | 162 nM | Cc1[nH]c(-c2ccccc2Oc2ccccc2)c2cc(C(=O)NN(C)C)[nH]c(=O)c12 [Example 53, N′,N′,3-trimethyl-4-oxo-1-(2-phenoxyphenyl)-4,5-dihydro-2H-pyrrolo[3,4-c]pyridine-6-carbohydrazide]
15.6 nM | 112 nM | 288 nM | CCS(=O)(=O)c1ccc(NCC2CC2)c(-c2[nH]c(C)c3c(=O)[nH]ncc23)c1 [Example 84, 5-{2-[(cyclopropylmethyl)amino]-5-(ethylsulfonyl)phenyl}-7-methyl-2,6-dihydro-1H-pyrrolo[3,4-d]pyridazin-1-one]
38.5 nM | 659 nM | 204 nM | Cc1[nH]c(-c2cc(F)ccc2OCC2CC2)c2cc(-c3nc(-c4cnccn4)no3)[nH]c(=O)c12 [Example 71, 1-(2-(cyclopropylmethoxy)-5-fluorophenyl)-3-methyl-6-(3-(pyrazin-2-yl)-1,2,4-oxadiazol-5-yl)-2H-pyrrolo[3,4-c]pyridin-4(5H)-one]
1.64 nM | 2.39 nM | 146 nM | Cc1[nH]c(-c2cc(NS(C)(=O)=O)ccc2Oc2ccccc2)c2cc(C(N)=O)[nH]c(=O)c12 [Example 20, 3-methyl-1-(5-(methylsulfonamido)-2-phenoxyphenyl)-4-oxo-4,5-dihydro-2H-pyrrolo[3,4-c]pyridine-6-carboxamide]
4.38 nM | 14.1 nM | 23.4 nM | CNC(=O)c1cc2c(-c3ccccc3Oc3ccccc3)[nH]c(C)c2c(=O)[nH]1 [Example 13, N,3-dimethyl-4-oxo-1-(2-phenoxyphenyl)-4,5-dihydro-2H-pyrrolo[3,4-c]pyridine-6-carboxamide]
12.1 nM | 51.8 nM | 222 nM | CCOC(=O)c1cc2c(-c3cc(S(C)(=O)=O)ccc3Oc3ccc(F)cc3F)[nH]c(C)c2c(=O)[nH]1 [Example 39, ethyl 1-[2-(2,4-difluorophenoxy)-5-(methylsulfonyl)phenyl]-3-methyl-4-oxo-4,5-dihydro-2H-pyrrolo[3,4-c]pyridine-6-carboxylate]
3.41 nM | 29.3 nM | 71.6 nM | CCOC(=O)c1cc2c(-c3cc(NS(C)(=O)=O)ccc3Oc3ccc(F)cc3F)[nH]c(C)c2c(=O)[nH]1 [Example 9, ethyl 1-{2-(2,4-difluorophenoxy)-5-[(methylsulfonyl)amino]phenyl}-3-methyl-4-oxo-4,5-dihydro-2H-pyrrolo[3,4-c]pyridine-6-carboxylate]
22.8 nM | 158 nM | 102 nM | Cc1[nH]c(-c2cc(Cl)ccc2Oc2ccc(F)cc2F)c2cc(C(N)=O)[nH]c(=O)c12 [Example 32, 1-[5-chloro-2-(2,4-difluorophenoxy)phenyl]-3-methyl-4-oxo-4,5-dihydro-2H-pyrrolo[3,4-c]pyridine-6-carboxamide]
56.8 nM | 118 nM | 442 nM | Cc1[nH]c(-c2ccccc2Oc2ccccc2)c2cc(C(=O)Nc3nccs3)[nH]c(=O)c12 [Example 26, 3-methyl-4-oxo-1-(2-phenoxyphenyl)-N-(thiazol-2-yl)-4,5-dihydro-2H-pyrrolo[3,4-c]pyridine-6-carboxamide]
6.25 nM | 45.1 nM | 60.8 nM | Cc1[nH]c(-c2ccccc2Oc2ccc(F)cc2F)c2cc(C(N)=O)[nH]c(=O)c12 [Example 23, 1-[2-(2,4-difluorophenoxy)phenyl]-3-methyl-4-oxo-4,5-dihydro-2H-pyrrolo[3,4-c]pyridine-6-carboxamide]
43.5 nM | 257 nM | 139 nM | Cc1[nH]c(-c2ccccc2Oc2ccccc2)c2cc(-c3nc(C4CC4)no3)[nH]c(=O)c12 [Example 63, 6-(3-cyclopropyl-1,2,4-oxadiazol-5-yl)-3-methyl-1-(2-phenoxyphenyl)-2H-pyrrolo[3,4-c]pyridin-4(5H)-one]
6.13 nM | 190 nM | 117 nM | Cc1[nH]c(-c2ccccc2Oc2ccccc2)c2cc(C(=O)N[C@@H]3CCN(C)C3)[nH]c(=O)c12 [Example 51, (R)-3-methyl-N-(1-methylpyrrolidin-3-yl)-4-oxo-1-(2-phenoxyphenyl)-4,5-dihydro-2H-pyrrolo[3,4-c]pyridine-6-carboxamide]
77 nM | 160 nM | 355 nM | CNC(=O)c1cc2c(-c3cc(C(F)(F)F)ccc3Oc3ccc(F)cc3F)[nH]c(C)c2c(=O)[nH]1 [Example 34, 1-[2-(2,4-difluorophenoxy)-5-(trifluoromethyl)phenyl]-N,3-dimethyl-4-oxo-4,5-dihydro-2H-pyrrolo[3,4-c]pyridine-6-carboxamide]
27.7 nM | 2.29 nM | 177 nM | Cc1[nH]c(-c2ccccc2Oc2ccccc2)c2cc(C(=O)Nc3ccc(CN4CCN(C)CC4)cc3)[nH]c(=O)c12 [Example 17, 3-methyl-N-(4-((4-methylpiperazin-1-yl)methyl)phenyl)-4-oxo-1-(2-phenoxyphenyl)-4,5-dihydro-2H-pyrrolo[3,4-c]pyridine-6-carboxamide]
10.1 nM | 13.9 nM | 161 nM | Cc1[nH]c(-c2ccccc2Oc2ccccc2)c2cc(C(=O)NC3CCOC3)[nH]c(=O)c12 (stereo not drawn) [Example 37, 3-methyl-4-oxo-1-(2-phenoxyphenyl)-N-(tetrahydrofuran-3-yl)-4,5-dihydro-2H-pyrrolo[3,4-c]pyridine-6-carboxamide]
1.78 nM | 15.8 nM | 252 nM | Cc1[nH]c(-c2ccccc2Oc2ccccc2)c2cc(C(=O)NC3CCNCC3)[nH]c(=O)c12 [Example 57, 3-methyl-4-oxo-1-(2-phenoxyphenyl)-N-(piperidin-4-yl)-4,5-dihydro-2H-pyrrolo[3,4-c]pyridine-6-carboxamide]
